Reference: article PMC10518255, “A first-in-class pan-lysyl oxidase inhibitor impairs stromal remodeling and enhances gemcitabine response and survival in pancreatic cancer” (Nature Cancer, 2023)
Values joined by “and” are separate entries in the source; they are usually repeats but may differ in a detail not shown here. Equal values may be shown once.

System: CD8
Assay: Immunohistochemistry of end-point KPC tumors: T-cell infiltration
Assay type: in vivo, mouse
Conditions: KPC tumours at endpoint; individual replicate values (Extended Data 6I)
Procedure: All tissues or matrices, including patient TMAs, were fixed in 10% buffered formalin and embedded in paraffin. The 4-μm sections of samples were deparaffinized with xylene and rehydrated in graded ethanol washes. For immunohistochemistry, Bond Dewax Solution (AR9222) was used. Antigen retrieval was performed using Bond RX H2(30) protocol: HIER 30 min ER1 (citrate pH 6) OR ER2 (EDTA pH 9) at 100 °C. Slides were quenched in BOND Polymer Refine Detection (Leica Biosystems DS9800). […] Slides were digitized on an Aperio slide scanner and representative areas per tumor acquired and analyzed by researchers blinded to the conditions of the experiment.
Extended Data Fig. 6 PXS-5505 in combination with gemcitabine in a KPC model. a. Quantification of proliferating cells (Ki67 positive nuclear staining) in KPC tumors at end point, treated as indicated. 5 fields of view (500 μm × 500 μm) per mouse and 10 mice per cohort were scored. […] Quantification of percent coverage of αSMA positive staining in KPC tumors at end point, treated as indicated. 3 fields of view (1000 μm × 1000 μm) per mouse and 10 mice per cohort were scored. […] Quantification of percent coverage of PDGFR-ß positive staining in KPC tumors at end point, treated as indicated. 3 fields of view (1000 μm × 1000 μm) per mouse and 10 mice per cohort were scored. […] 3 fields of view (500 μm × 500 μm) per mouse and 10 mice per cohort were scored. […]

Cl.Cl.NC/C=C(\F)CS(=O)(=O)c1cccc2cccnc12.O [PXS-5505, (Z)-3-fluoro-4-(quinolin-8-ylsulfonyl)but-2-en-1-amine dihydrochloride monohydrate]
T-cell infiltration (CD8 positive staining): 7 and 5
